Data from patent publication US20110104177A1, “HISTONE DEACETYLASE INHIBITORS, COMBINATION THERAPIES AND METHODS OF USE” (THE JOHNS HOPKINS UNIVERSITY, priority 2006, published 2011).

Key:
SIRT1 [1] = molecular target: T1, SIRT1 (Homo sapiens, UniProt Q96EB6); test: Activity against the SIRT1 enzyme / SIRT1 deacetylase activity; format: biochemical
T1 sequence (Q96EB6 1-747): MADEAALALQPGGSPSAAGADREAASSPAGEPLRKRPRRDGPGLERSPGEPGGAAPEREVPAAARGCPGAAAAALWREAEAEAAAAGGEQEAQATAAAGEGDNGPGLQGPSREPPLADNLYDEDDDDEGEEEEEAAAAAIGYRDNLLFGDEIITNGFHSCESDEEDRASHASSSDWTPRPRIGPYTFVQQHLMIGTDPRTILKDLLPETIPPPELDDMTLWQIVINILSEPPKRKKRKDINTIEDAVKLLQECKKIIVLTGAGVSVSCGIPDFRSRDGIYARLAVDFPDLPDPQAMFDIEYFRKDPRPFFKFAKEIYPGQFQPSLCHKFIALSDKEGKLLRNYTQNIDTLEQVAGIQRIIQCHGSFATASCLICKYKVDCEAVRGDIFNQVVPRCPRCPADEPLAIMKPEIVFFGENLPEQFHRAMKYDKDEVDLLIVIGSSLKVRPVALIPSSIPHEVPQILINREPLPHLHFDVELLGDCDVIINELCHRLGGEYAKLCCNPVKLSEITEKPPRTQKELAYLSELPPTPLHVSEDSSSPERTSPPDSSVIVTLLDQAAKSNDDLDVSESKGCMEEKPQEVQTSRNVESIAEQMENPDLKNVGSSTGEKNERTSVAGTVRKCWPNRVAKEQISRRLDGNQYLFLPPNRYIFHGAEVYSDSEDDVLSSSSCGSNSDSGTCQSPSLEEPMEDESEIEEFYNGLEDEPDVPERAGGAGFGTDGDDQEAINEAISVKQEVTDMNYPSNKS

[2] = test system: SFRP1, SFRP2, MLH1, CRBP1, E-cadherin genes in RKO cells; test: RT-PCR re-expression of silenced tumor suppressor genes in RKO cells; format: cell-based, human; conditions: RKO cells; for SFRP1 RT-PCR specific band: doses of 20 and 50 μM, 24 or 48 hours
Procedure: To inhibit any residual SIRT1 protein, remaining RNAi-expressing cells were treated with 700 μM SPT and control samples were treated with DMSO for 24 hours. […] RKO cells were also treated with 0.5 μM Aza (24 hours), and samples were analyzed as described in FIG. 1A; RT-PCR was performed with intron-spanning primers specific for the two genes. GAPDH was also analyzed as a control. […] Control samples in which no reverse transcriptase was added were analyzed separately, and all were negative for amplification of the indicated genes. […] The level of TSG re-expression induced by Aza treatment or SIRT1 inhibition as described in FIG. 4(A) was compared to levels of expression in HCT116 cells in which the TSGs are basally expressed.
(§1) Cell culture and retroviral infection. MDA-MB-231, MCF7, HCT116, SW480 RKO, and Phoenix cells (ATCC, Rockville, Md., United States) were cultured in Dulbecco's modified Eagle's medium supplemented with 10% fetal bovine serum and 1% penicillin/streptomycin (Invitrogen, Carlsbad, Calif., United States). Retroviral infection was performed using either single or multiple rounds of infection. Briefly, Phoenix cells were transfected with either pBabe, pBabe-SIRT1H363Y, pSUPERretro, pSUPERretro-SIRT1-RNAi-1-3 (NM_012238 positions 410, 589, and 1091; Oligo Engine, Seattle, Wash., United States) using Lipofectamine 2000 (Invitrogen). After 48 h of transfection, the medium containing retrovirus was collected, filtered, and supplemented with Polybrene prior to infection of target cells (MDA-MB-231, MCF7, or HCT116). Infected cells were either harvested 24-48 hours later or subjected to selection with 2-3 μg/ml puromycin for a week prior to harvest and analysis.
(§2) RNA and protein preparation and analysis. Total RNA was extracted (Invitrogen) according to the manufacturer's instructions and subjected to reverse transcription followed by both quantitative real-time and semi-quantitative polymerase chain reaction. For quantitative real-time analyses, the QuantiTect SYBR Green PCR kit (Qiagen, Valencia, Calif., United States) was used and the amplification conditions consisted of an initial 10-minutes denaturation step at 95° C., followed by 40 cycles of denaturation at 95° C. for 15 s and annealing and extension for 30 seconds and 60 seconds, respectively. A BioRad iCycler was used (BioRad, Hercules, Calif., United States), and for quantitation the comparative cycle threshold (Ct) method was used, normalizing the Ct values for the indicated gene to the Ct values of GAPDH relative to a control sample. For conventional PCR, at least two independent sets of intron-spanning primers were used for the analysis of multiple genes, such as CRBP1, (NM_002899), E-cadherin, (L34545), SFRP1, (BC036503), SFRP2, (BC008666), and Gata-4 (L34357). For Western blots, cells stably expressing RNAi constructs were harvested in 50 mM Tris-HCl, 1% NP-40, 0.25% sodium deoxycholate, 150 mM NaCl, 50 mM sodium fluoride, 1 mM dithiothreitol, 1 mM AEBSF, 1× Complete protease inhibitor cocktail (Roche, Basel, Switzerland). Protein concentrations were measured by BCA (Pierce Biotechnology, Rockford, Ill., United States). […] On the same blot, β-actin (Sigma, St. Louis, Mo., United States) was probed to ensure equal loading.
(§3) The results from experiments performed in RKO cells are shown in FIG. 7 which presents RT-PCR results for SFRP1. […] The expression seemed stronger than for 300 μM splitomycin (Spt) or 20 mM nicotinamide (Nia) when these latter two drugs were used alone or in combination, but not as strong as the expression induced by 1 μM of the DNA demethylating agent, deoxy-aza-cytidine (Aza). […] Experiments were carried out as essentially described above.

[3] = test system: SFRP1 and 2 genes in human breast cancer cells (line H231); test: Re-activation of SFRP1 and 2 genes in breast cancer cells (line H231); format: cell-based
Procedure: This has been accomplished for the SFRP1 and 2 genes in human breast cancer cells (line H231) and for SFRP1 in human colon cancer cells (line RKO).
as §3

SIRT1 [4] = test: Western blot of SIRT1 protein after retroviral shRNA infection; format: cell-based, human; conditions: MDA-MB-231 cells
Procedure: as §1, §2

[5] = test system: SFRP1, SFRP2, E-cadherin, CRBP1 genes in MDA-MB-231 cells; test: RT-PCR re-expression of silenced tumor suppressor genes in MDA-MB-231 cells; format: cell-based, human; conditions: MDA-MB-231 cells
Procedure: The panels of FIG. 2 are as follows. […] MDA-MB-231 cells were treated with 15 mM NIA or 300 μM SPT for 21 hours, RNA was isolated, and RT-PCR was performed with intron-spanning primers specific for the indicated genes. Control samples in which no reverse transcriptase was added were analyzed separately, and all were negative for amplification of the indicated genes. […] MDA-MB-231 cells were treated with either 50 nM Aza (+), 100 μM SPT (+) or with both Aza and SPT (++), and 34 hours later, RT-PCR was performed for the indicated genes as described in FIG. 2(A). […] MDA-MB-231 cells were treated with either 0, 50, 100, or 120 μM SPT alone for 34 hours, or the treatment was followed by treatment with 300 nM TSA for 3 hours prior to RNA isolation and RT-PCR analysis. […] MDA-MB-231 cells were infected with low titers of virus for shRNA specific for SIRT1. Aza (100 nM) was added 24 hours prior to RNA isolation, and RT-PCR analysis was performed for the genes SFRP 1, SFRP2, and GAPDH as described in FIG. 2(A). […] As shown in the left panel, MDA-MB-231 cells were infected with a control (vec) or mutant SIRT1 virus (HY), and RT-PCR was performed as described in FIG. 2(A). MDA-MB-231 cells were infected with low titers of pBabe or pBabe-SIRT1H363Y retrovirus and subsequently treated with 100 nM Aza for 24 hours or with 300 nM TSA for 3 hours prior to harvest, and RT-PCR was performed.
as §1, §2

[6] = test system: SFRP1, SFRP2, GATA4 promoter methylation in MDA-MB-231 cells; test: Promoter DNA methylation by bisulfite sequencing and MSP; format: cell-based, human; conditions: MDA-MB-231 cells stably infected
Text: The panels of FIG. 3 are as follows. […] Parallel samples analyzed in FIG. 1D were subjected to bisulfite sequencing of the SFRP1 promoter from MDA-MB-231 cells stably infected with control vector or RNAi-2 or RNAi-3 retrovirus. Open circles indicate unmethylated cytosines, and closed circles indicate methylated cytosines. Numbers at the bottom show the position of cytosines relative to the transcription start site, which is at position 0, and those with a minus sign (−) are upstream from this start site. The region sequenced encompasses the CpG island in which methylation status correlates with gene expression status. […] From left to right: (−) PCR Ctrl indicates H2O only; (−) BS ctrl indicates bisulfite-treated H20; (+) M ctrl indicates the cell line in which SFRP1 is partially methylated and SFRP2 and GATA4 are fully methylated; and (+) U ctrl indicates the Tera-2 cell line in which each gene is unmethylated. All remaining lanes are for MDA-MB-231. From left to right: Aza indicates 1 μM Aza (24 hours) treatment; Ctrl indicates empty vector infection; RNAi-2 indicates shRNA-2 infection alone; RNAi-3 indicates shRNA-3 infection alone; Aza indicates 1 μM Aza (24 hours treatment of control cells; Ctrl indicates empty vector infection+vehicle; RNAi-2 indicates shRNA-2 infection+5 mM NIA treatment; and RNAi-3 indicates shRNA-3 infection+5 mM NIA treatment.
MSP and bisulfite sequencing. […]

[7] = test system: SFRP1 and SFRP2 genes in MCF7 cells; test: RT-PCR re-expression of silenced tumor suppressor genes in MCF7 cells; format: cell-based, human
Procedure: as §1, §2

What does the source list for `NC(=O)C1CCCCc2c1[nH]c1ccc(Cl)cc21` (stereo not shown) [Compound 6, 2-Chloro-5,6,7,8,9,10-hexahydro-cyclohepta[b]indole-6-carboxylic acid amide]?
inhibition of SIRT1 deactylase activity (SIRT1 [1]): potent inhibition; SFRP1 expression compared with 1 μM deoxy-aza-cytidine (Aza) ([2]; RT-PCR): not as strong; SFRP1 expression compared with 300 μM splitomycin or 20 mM nicotinamide, alone or in combination ([2]; RT-PCR): stronger; SFRP1 RT-PCR specific band [2]: produce the band at both time points; transcriptional re-activation of SFRP1 and 2 genes [3]: the same effects have been achieved

`NC(=O)[C@@H]1CCCc2c1[nH]c1ccc(Cl)cc21` [(R)-6-chloro-2,3,4,9-tetrahydro-1H-carbazole-1-carboxamide] was tested. Which “inhibition of SIRT1 deactylase activity” value (SIRT1 [1]) did it give?
The value was “inactive”.

What about the “SFRP1 RT-PCR specific band” value [2] of the same molecule?
Its value is “produces no specific band”.

For “RNAi-2: shRNA targeting SIRT1 mRNA, sequence GGCCACGGATAGGTCCATA, NM_012238 position 589”, which “reduction of SIRT1 protein (knockdown)” value (SIRT1 [4]) is on record?
The value was “very effective in reducing protein levels”.

And the “gene re-expression of SFRP1, SFRP2 and E-cadherin” value ([5]; shRNA retroviral infection, RT-PCR)?
The value was “led to gene re-expression”.

What about the “SFRP1 promoter methylation profile (bisulfite sequencing)” value [6] of the same molecule?
The value was “without changes in the methylation profile”.

How did the “re-expression of epigenetically silenced, hypermethylated TSGs” value ([7]; sirtuin inhibitors, data not shown) turn out when `NC(=O)c1cccnc1` [NIA, nicotinamide, reference compound] was run?
Its value is “could cause the re-expression”.

What about the “re-expression of epigenetically silenced, hypermethylated TSGs incl. CRBP1” value ([5]; 15 mM NIA or 300 μM SPT for 21 hours) of the same molecule?
Its value is “could cause the re-expression”.

B1: SIRT1H363Y: catalytically inactive, dominant negative inhibitor of SIRT1, expressed through retroviral infection (protein, UniProt Q96EB6 2-747, looked up, variant H363Y)
NAD-dependent protein …: ADEAALALQPGGSPSAAGADREAASSPAGEPLRKRPRRDGPGLERSPGEPGGAAPEREVPAAARGCPGAAAAALWREAEAEAAAAGGEQEAQATAAAGEGDNGPGLQGPSREPPLADNLYDEDDDDEGEEEEEAAAAAIGYRDNLLFGDEIITNGFHSCESDEEDRASHASSSDWTPRPRIGPYTFVQQHLMIGTDPRTILKDLLPETIPPPELDDMTLWQIVINILSEPPKRKKRKDINTIEDAVKLLQECKKIIVLTGAGVSVSCGIPDFRSRDGIYARLAVDFPDLPDPQAMFDIEYFRKDPRPFFKFAKEIYPGQFQPSLCHKFIALSDKEGKLLRNYTQNIDTLEQVAGIQRIIQCYGSFATASCLICKYKVDCEAVRGDIFNQVVPRCPRCPADEPLAIMKPEIVFFGENLPEQFHRAMKYDKDEVDLLIVIGSSLKVRPVALIPSSIPHEVPQILINREPLPHLHFDVELLGDCDVIINELCHRLGGEYAKLCCNPVKLSEITEKPPRTQKELAYLSELPPTPLHVSEDSSSPERTSPPDSSVIVTLLDQAAKSNDDLDVSESKGCMEEKPQEVQTSRNVESIAEQMENPDLKNVGSSTGEKNERTSVAGTVRKCWPNRVAKEQISRRLDGNQYLFLPPNRYIFHGAEVYSDSEDDVLSSSSCGSNSDSGTCQSPSLEEPMEDESEIEEFYNGLEDEPDVPERAGGAGFGTDGDDQEAINEAISVKQEVTDMNYPSNKS
How did the “gene re-expression of SFRP1 and SFRP2” value ([7]; retroviral infection, RT-PCR) turn out when B1 was run?
The value was “re-expression of SFRP1 and SFRP2”.

What about the “re-expression of SFRP1 and SFRP2” value ([5]; dominant negative expressed through retroviral infection) of the same molecule?
The value was “re-expression of SFRP1 and SFRP2”.

And the “reactivation of SFRP1 (GATA-5 and SFRP2 data not shown), combined with Aza” value ([5]; low titers of retrovirus, 100 nM Aza for 24 hours)?
Its value is “synergistic reactivation of SFRP1”.

What about the “reactivation of SFRP1 (GATA-5 and SFRP2 data not shown), combined with TSA” value ([5]; low titers of retrovirus, 300 nM TSA for 3 hours) of the same molecule?
Its value is “synergistic reactivation of SFRP1”.
